Assay results reported in paper PMC10888192, “New Derivatives of 1-(3-Methyl-1-Benzofuran-2-yl)Ethan-1-one: Synthesis and Preliminary Studies of Biological Activity” (International Journal of Molecular Sciences, 2024).

Key:
Type in all cases: cell-based, human
[1] = test system: reactive oxygen species (H2O2) in K562 cells; assay: ROS generation (DHR 123 and DCFH-DA fluorescence); settings: K562, IC50 concentration, 12 h incubation, DHR123 or DCF-DA, compared with untreated cells
Excerpt: The resulting data were expressed as mean ± SD from three independent experiments performed in triplicate.

K562 cells = assay: Trypan blue exclusion assay, K562; settings: 72 h; for Cell Number (×10^6): K562, trypan blue, IC50 concentration
Experimental: (§1) The MTT assay assesses the viable cell number based on mitochondrial enzyme activity. […] In the next step of our studies, we analyzed the total cell number and viability after exposure to the selected compounds at IC50 concentration using trypan blue exclusion assay. K562 cells were incubated with tested compounds over 72 h. […] To assess the antiproliferative properties of newly synthesized derivatives, we analyzed the total cell number. […] The parallel experiment was conducted with HaCaT cells. […] The trypan blue test rapidly assesses cell viability indirectly from cell membrane integrity, but some publications have indicated weaknesses of this viability test. […] On the other hand, cell membrane integrity may be affected even while the cell might still be able to repair itself and become fully viable.
To evaluate the antiproliferative effects of the novel benzofurans derivatives the trypan blue exclusion assay was performed. Cells (HaCat, and K562) were seeded into 12-well plates (2 × 10^4 cells/well). After 24 h, cells were exposed to the tested compounds at concentrations of their respective IC50 and incubated for 72h. Then, cells were harvested and centrifugated (500× g, 5min). After centrifugation supernatant was removed and cell sediment was dissolved in 0.2 mL of PBS. Next, 10 µL of cells solution was mixed with 10 µL of trypan blue dye. Cells were counted by automatic cell counter (Countessa). Data obtained were expressed as the mean ± SD and the mean percentage of viable cells was calculated from three independent experiments performed in triplicate.

[2] = test system: caspases 3 and 7 in K562 cells; assay: Caspase-Glo 3/7 assay; settings: IC50 concentration; for Effect on activity of caspases 3 and 7: 4 h incubation
Excerpt: ROS may play a different function in different stages of cancer. ROS might enhance cell growth and proliferation through the induction of various cell signaling pathways involving nuclear factor-kappa B (NF-κB) and STAT3, hypoxia-inducible factor 1α (HIF1α), kinases, growth factors, cytokines and many other proteins. On the other hand, the accumulation of ROS can induce cell damage and promote apoptosis. It has also been confirmed that elevated ROS concentration may cause mitochondrial membrane depolarization and facilitate increased cellular pro-apoptotic molecules releasing. […] As has been previously reported, lead compound 1,1′-[3-(bromomethyl)-5,6-dimethoxy-1-benzofuran-2,7-diyl] induces apoptosis in human leukemia cells. […] We used the Annexin V-FITC test, which allows us to detect the early structural changes in cellular membrane which occur during apoptosis. […] In the control sample almost 94% of cells were neither apoptotic nor necrotic. […] As has been previously written, the MTT test assesses the toxicity of tested compounds based on the activity of mitochondrial enzymes. […] Our results are in agreement with studies conducted by Liu et al. and Su et al. They report that the benzofuran derivatives ACDB and BL-038 induce apoptosis of human chandrosarcoma cells through ROS generation, mitochondria and endoplasmic reticulum dysfunction. BL-038 increases ROS production and dysregulates mitochondria membrane potential. This causes cytochrome C to be released from mitochondria and caspase activation. Similar effects have been observed for 2-amino-3-(2-chlorophenyl)-6-(4-dimethylaminophenyl) benzofuran-4-yl acetate (ACDB). It is well documented that disruption of the mitochondrial membrane as a result of, for example, the action of free radicals causes the release of cytochrome C. In the next step, cytochrome C binds to Apaf-1 (apoptotic protease activating factor 1) and it becomes the main component of apoptosome. The binding of cytochrome C with Apaf-1 is a critical step in apoptosome formation because it is responsible for the induction of intrinsic cell death pathway triggered by caspase activation. The observed increased concentration of hydrogen peroxide in cells exposed to both tested compounds might be a key factor for the molecular mechanism of apoptosis. Hydrogen peroxide can affect the redox state of cytochrome C. In addition to the effect of hydrogen peroxide on the iron atom in the cytochrome, it can also affect the activation of caspases. In order to estimate the effect of K562 exposure on the tested compounds as well as to confirm apoptotic properties of new benzofurans, we analyzed the effect of the compounds caspases 3 and 7 activities. […] We observed significant changes of activity after 48 h exposure. […] The caspase cascade responsible for executing cell death following cytochrome C release is well documented. Available research indicates, first of all, the key role of caspases 3 and 7 as mediators in the apoptosis through the intrinsic (mitochondrial) cell death pathway. […] They have shown that caspase 9 is responsible for mitochondrial morphological changes and ROS production by cleaving and activating Bid into tBid. Following caspase 9 activation, caspase 3 […] ROS generation and is essential for the efficient execution of apoptosis, whereas effector caspase 7 is needed for apoptotic cell detachment. […]
The induction of cell apoptosis was also analyzed by luminescent assay with the Caspases-Glo3/7 assay system (Promega). […]

HaCaT cells = assay: Trypan blue exclusion assay, HaCaT; settings: IC50 concentration, 72 h
Experimental: as §1
To evaluate the antiproliferative effects of the novel benzofurans derivatives the trypan blue exclusion assay was performed. Cells (HaCat, and K562) were seeded into 12-well plates (2 × 10^4 cells/well). After 24 h, cells were exposed to the tested compounds at concentrations of their respective IC50 and incubated for 72h. […] Cells were counted by automatic cell counter (Countessa). Data obtained were expressed as the mean ± SD and the mean percentage of viable cells was calculated from three independent experiments performed in triplicate.

[3] = test system: IL-6 secretion by K562 cells; assay: IL-6 release, ELISA; settings: for Il-6 Concentration in K562 Cells in 72 h: ELISA, culture medium, IC50 concentration, mean ± SD; for Reduction of the level of IL-6: K562, IC50 concentration, 72 h
Excerpt: Among many soluble factors present in the plasma and tissue microenvironment in patients with chronic lymphatic leukemia recent studies confirmed a presence of few types of interleukin (IL) including 4, 6 and 10. […] IL-6 is a member of a big family of cytokines and is predominantly excreted by T cells and macrophages to stimulate immune response during infection. Studies have shown that elevated levels of serum IL-6 is positively correlated with worse clinical outcomes in patients with different types of cancer, including leukemia. IL-6 also plays a key role in the chemoresistance of malignancies. Based on these findings we checked the effect of our new benzofuran derivatives on IL-6 secretion by K562 cells. […] On the other hand, K562 cells like other erythroid and megakaryocytic cells release IL-6 in a constitutive way.
K562 cells were treated with IC50 concentrations of the tested compounds. After 72 h, medium was collected and the IL-6 level was measured using an enzyme-linked immunosorbent assay, in accordance with the manufacturer’s protocol. The resulting data were expressed as mean ± SD from three independent experiments performed in triplicate.

Compound | Increase of fluorescence intensity (ROS generation) [1] | Reduction of total cell number (K562 cells; K562, IC50 concentration, compared to control) [%] | Cell Number (×10^6) (K562 cells) | Effect on activity of caspases 3 and 7 [2] | Increase of activity of caspases 3 and 7 ([2]; 12 h exposure) [%] | Cell Number (×10^6) (HaCaT cells) | Il-6 Concentration in K562 Cells in 72 h [3] | Reduction of the level of IL-6 [3] [%] | Increase of activity of caspases 3 and 7 ([2]; 48 h exposure) [%]
COc1cc(OC)c2c(CBr)c(C(C)=O)oc2c1 [Compound 6, 1-[3-(Bromomethyl)-4,6-Dimethoxy-1-Benzofuran-2-yl]Ethanone] | two-fold increase in fluorescence intensity | 13 | 0.62 ± 0.12 ×10^6 | did not affect the activity of caspases 3 and 7 | 26 | 2.45 ± 1.63 ×10^6 | 5.791 ± 2.048 | 50 | –
CCOc1cccc2oc(C(C)=O)c(CBr)c12 [Compound 8, 1-[3-(Bromomethyl)-4-Ethoxy-1-Benzofuran-2-yl]Ethanone] | statistically significant increase of fluorescence intensity | – | 0.83 ± 0.12 ×10^6 | did not affect the activity of caspases 3 and 7 | 27 | 2.00 ± 0.42 ×10^6 | 6.958 ± 3.623 | 40 | 13
